What was measured:
Format in all cases: in vivo
Settings in all cases: 250 g/ha, evaluated after 13 days
[1] = system: Amaranthus palmeri (AMAPA); assay: Post-emergence herbicide glasshouse test
Summary of the method: (§1)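 Species sown in standard soil and sprayed 1 day (pre-emergence) or 8 days (post-emergence) after sowing, at 250 g/ha unless noted, in acetone/water (50:50) with 0.5% Tween 20. Glasshouse at 24/16 °C day/night, 14 h light, 65% humidity. Percentage damage scored after 13 days on a 1–5 scale (5=81–100%, 1=0–20%).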

[2] = system: Amaranthus retoflexus (AMARE); assay: Post-emergence herbicide glasshouse test
Summary of the method: as §1

[3] = system: Echinochloa crus-galli (ECHCG); assay: Post-emergence herbicide glasshouse test
Summary of the method: as §1

[4] = system: Ipomoea hederacea (IPOHE); assay: Post-emergence herbicide glasshouse test
Summary of the method: as §1

[5] = system: Amaranthus palmeri (AMAPA); assay: Pre-emergence herbicide glasshouse test
Summary of the method: as §1

[6] = system: Amaranthus retoflexus (AMARE); assay: Pre-emergence herbicide glasshouse test
Summary of the method: as §1

[7] = system: Echinochloa crus-galli (ECHCG); assay: Pre-emergence herbicide glasshouse test
Summary of the method: as §1

[8] = system: Ipomoea hederacea (IPOHE); assay: Pre-emergence herbicide glasshouse test
Summary of the method: as §1

SMILES | percentage damage caused to the plant, AMAPA (five-point scale) [1] | percentage damage caused to the plant, AMARE (five-point scale) [2] | percentage damage caused to the plant, ECHCG (five-point scale) [3] | percentage damage caused to the plant, IPOHE (five-point scale) [4] | percentage damage caused to the plant, AMAPA (five-point scale) [5] | percentage damage caused to the plant, AMARE (five-point scale) [6] | percentage damage caused to the plant, ECHCG (five-point scale) [7] | percentage damage caused to the plant, IPOHE (five-point scale) [8]
Cc1cc(Cn2cc(C(F)(F)F)nc2-c2cnc(F)c(Cl)c2)ns1 [Compound 1.154] | 5 (5=81-100%) | 5 (5=81-100%) | 5 (5=81-100%) | 4 (4=61-80%) | 5 (5=81-100%) | 5 (5=81-100%) | 5 (5=81-100%) | 5 (5=81-100%)
CC(C)(C)c1csc(Cn2cc(C(F)(F)F)nc2-c2ccc(Cl)nc2)n1 [Compound 1.137] | 1 (1=0-20%) | 1 (1=0-20%) | 1 (1=0-20%) | 1 (1=0-20%) | 1 (1=0-20%) | 1 (1=0-20%) | 1 (1=0-20%) | 1 (1=0-20%)
FC(F)(F)c1cn(Cc2noc(C3CC3)n2)c(-c2ccc(Cl)nc2)n1 [Compound 1.125] | 4 (4=61-80%) | 5 (5=81-100%) | 4 (4=61-80%) | 5 (5=81-100%) | 5 (5=81-100%) | 5 (5=81-100%) | 5 (5=81-100%) | 5 (5=81-100%)
Cc1nc(Cn2cc(C(F)(F)F)nc2-c2ccc(C(F)(F)F)cc2)cs1 [Compound 1.010] | 1 (1=0-20%) | 2 (2=21-40%) | 1 (1=0-20%) | 3 (3=41-60%) | 2 (2=21-40%) | 5 (5=81-100%) | 1 (1=0-20%) | 2 (2=21-40%)
FC(F)(F)c1ccc(-c2nc(C(F)(F)F)cn2Cc2ccno2)cc1 [Compound 1.009] | 1 (1=0-20%) | 2 (2=21-40%) | 1 (1=0-20%) | 3 (3=41-60%) | 1 (1=0-20%) | 1 (1=0-20%) | 1 (1=0-20%) | 1 (1=0-20%)
CCn1cc(Cn2cc(C(F)(F)F)nc2-c2ccc(Cl)nc2)nn1 [Compound 1.110] | 4 (4=61-80%) | 4 (4=61-80%) | 1 (1=0-20%) | 4 (4=61-80%) | 5 (5=81-100%) | 5 (5=81-100%) | 3 (3=41-60%) | 5 (5=81-100%)
Cc1nnc(Cn2cc(C(F)(F)F)nc2-c2ccc([S+](C)[O-])cc2)s1 (centres unmarked) [Compound 1.178] | 1 (1=0-20%) | 1 (1=0-20%) | 1 (1=0-20%) | 1 (1=0-20%) | 3 (3=41-60%) | 3 (3=41-60%) | 1 (1=0-20%) | 4 (4=61-80%)
CC(C)c1nc(Cn2cc(C(F)(F)F)nc2-c2ccc(Cl)nc2)no1 [Compound 1.126] | 1 (1=0-20%) | 1 (1=0-20%) | 1 (1=0-20%) | 1 (1=0-20%) | 1 (1=0-20%) | 1 (1=0-20%) | 1 (1=0-20%) | 1 (1=0-20%)
Cc1cc(Cn2cc(C#N)nc2-c2cnc(Cl)c(F)c2)no1 [Compound 1.185] | 4 (4=61-80%) | 4 (4=61-80%) | 1 (1=0-20%) | 3 (3=41-60%) | 5 (5=81-100%) | 5 (5=81-100%) | 3 (3=41-60%) | 4 (4=61-80%)
Cc1cc(Cn2cc(C(F)(F)F)nc2-c2ccc(S(C)(=O)=O)cc2)ns1 [Compound 1.161] | 5 (5=81-100%) | 5 (5=81-100%) | 5 (5=81-100%) | 5 (5=81-100%) | 5 (5=81-100%) | 5 (5=81-100%) | 5 (5=81-100%) | 5 (5=81-100%)
Fc1cc(-c2nc(C(F)(F)F)cn2Cc2ccc(Cl)s2)cnc1Cl [Compound 1.174] | 5 (5=81-100%) | 5 (5=81-100%) | 1 (1=0-20%) | 2 (2=21-40%) | 5 (5=81-100%) | 5 (5=81-100%) | 1 (1=0-20%) | 1 (1=0-20%)
CN(C)S(=O)(=O)c1cc(Cn2cc(C(F)(F)F)nc2-c2ccc(Cl)nc2)co1 [Compound 1.144] | 1 (1=0-20%) | 1 (1=0-20%) | 1 (1=0-20%) | 1 (1=0-20%) | 1 (1=0-20%) | 1 (1=0-20%) | 1 (1=0-20%) | 1 (1=0-20%)
FC(F)(F)c1cn(Cc2cnc(Cl)s2)c(-c2ccc(Cl)nc2)n1 [Compound 1.150] | 1 (1=0-20%) | 1 (1=0-20%) | 1 (1=0-20%) | 1 (1=0-20%) | 2 (2=21-40%) | 2 (2=21-40%) | 1 (1=0-20%) | 1 (1=0-20%)
Cc1nonc1Cn1cc(C(F)(F)F)nc1-c1ccc(C(F)(F)F)cc1 [Compound 1.006] | 1 (1=0-20%) | 1 (1=0-20%) | 1 (1=0-20%) | 1 (1=0-20%) | 1 (1=0-20%) | 1 (1=0-20%) | 1 (1=0-20%) | 1 (1=0-20%)
Cc1noc(Cn2cc(C(F)(F)F)nc2-c2ccc(Cl)nc2)n1 [Compound 1.101] | 4 (4=61-80%) | 4 (4=61-80%) | 1 (1=0-20%) | 5 (5=81-100%) | 5 (5=81-100%) | 5 (5=81-100%) | 1 (1=0-20%) | 5 (5=81-100%)
Cc1noc(Cn2cc(C(F)(F)F)nc2-c2ccc(S(C)(=O)=O)cc2)n1 [Compound 1.176] | 1 (1=0-20%) | 1 (1=0-20%) | 1 (1=0-20%) | 1 (1=0-20%) | 1 (1=0-20%) | 1 (1=0-20%) | 1 (1=0-20%) | 1 (1=0-20%)

— US20260125360A1, “HERBICIDAL IMIDAZOLE COMPOUNDS” (SYNGENTA CROP PROTECTION AG, priority 2022, published 2026)
